Measured values published in ChEMBL document CHEMBL5465560, “Selectivity Literature for EUbOPEN Chemogenomic Library” (2024).

Experiments:
Aurora kinase B = Aurora kinase B (Homo sapiens, UniProt Q96GD4); assay: Selectivity interaction (SelectScreen profiling (Invitrogen)) EUB0000607a AURKB; details: at 2 µM
[1] = target: Interleukin-1 receptor-associated kinase 1 (Homo sapiens) (UniProt P51617); assay: Selectivity interaction (KinomeScan (DiscoverX)) EUB0000607a IRAK1; details: at 10 µM
[2] = target: T1, Serine/threonine-protein kinase haspin (Homo sapiens) (UniProt Q8TF76); assay: Selectivity interaction (Kinase panel (DSF assay)) EUB0001558a GSG2
T1 sequence (whole entry): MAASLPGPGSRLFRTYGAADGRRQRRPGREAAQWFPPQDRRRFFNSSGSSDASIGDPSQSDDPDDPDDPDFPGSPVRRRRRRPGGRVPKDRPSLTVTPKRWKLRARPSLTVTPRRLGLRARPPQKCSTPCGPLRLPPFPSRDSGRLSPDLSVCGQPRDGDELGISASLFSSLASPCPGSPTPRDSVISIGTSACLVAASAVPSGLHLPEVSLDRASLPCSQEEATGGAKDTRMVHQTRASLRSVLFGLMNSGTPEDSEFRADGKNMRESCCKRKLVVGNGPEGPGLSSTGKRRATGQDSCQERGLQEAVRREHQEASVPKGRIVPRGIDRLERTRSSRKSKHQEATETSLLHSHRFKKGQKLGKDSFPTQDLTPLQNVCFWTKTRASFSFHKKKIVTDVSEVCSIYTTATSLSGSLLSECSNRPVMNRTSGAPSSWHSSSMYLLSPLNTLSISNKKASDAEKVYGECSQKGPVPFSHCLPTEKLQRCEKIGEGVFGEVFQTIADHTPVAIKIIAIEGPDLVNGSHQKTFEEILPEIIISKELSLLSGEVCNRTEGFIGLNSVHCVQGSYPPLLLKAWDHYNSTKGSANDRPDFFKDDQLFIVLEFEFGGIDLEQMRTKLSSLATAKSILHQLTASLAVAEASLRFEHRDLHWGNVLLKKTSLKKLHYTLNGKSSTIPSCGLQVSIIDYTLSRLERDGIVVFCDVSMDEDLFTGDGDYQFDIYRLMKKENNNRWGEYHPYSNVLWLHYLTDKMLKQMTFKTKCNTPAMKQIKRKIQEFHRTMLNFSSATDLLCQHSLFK

[3] = target: T2, Myosin-IIIb (Homo sapiens) (UniProt Q8WXR4); assay: Selectivity interaction (KinomeScan (DiscoverX)) EUB0000666a MYO3B; details: at 10 µM
T2 sequence (whole entry): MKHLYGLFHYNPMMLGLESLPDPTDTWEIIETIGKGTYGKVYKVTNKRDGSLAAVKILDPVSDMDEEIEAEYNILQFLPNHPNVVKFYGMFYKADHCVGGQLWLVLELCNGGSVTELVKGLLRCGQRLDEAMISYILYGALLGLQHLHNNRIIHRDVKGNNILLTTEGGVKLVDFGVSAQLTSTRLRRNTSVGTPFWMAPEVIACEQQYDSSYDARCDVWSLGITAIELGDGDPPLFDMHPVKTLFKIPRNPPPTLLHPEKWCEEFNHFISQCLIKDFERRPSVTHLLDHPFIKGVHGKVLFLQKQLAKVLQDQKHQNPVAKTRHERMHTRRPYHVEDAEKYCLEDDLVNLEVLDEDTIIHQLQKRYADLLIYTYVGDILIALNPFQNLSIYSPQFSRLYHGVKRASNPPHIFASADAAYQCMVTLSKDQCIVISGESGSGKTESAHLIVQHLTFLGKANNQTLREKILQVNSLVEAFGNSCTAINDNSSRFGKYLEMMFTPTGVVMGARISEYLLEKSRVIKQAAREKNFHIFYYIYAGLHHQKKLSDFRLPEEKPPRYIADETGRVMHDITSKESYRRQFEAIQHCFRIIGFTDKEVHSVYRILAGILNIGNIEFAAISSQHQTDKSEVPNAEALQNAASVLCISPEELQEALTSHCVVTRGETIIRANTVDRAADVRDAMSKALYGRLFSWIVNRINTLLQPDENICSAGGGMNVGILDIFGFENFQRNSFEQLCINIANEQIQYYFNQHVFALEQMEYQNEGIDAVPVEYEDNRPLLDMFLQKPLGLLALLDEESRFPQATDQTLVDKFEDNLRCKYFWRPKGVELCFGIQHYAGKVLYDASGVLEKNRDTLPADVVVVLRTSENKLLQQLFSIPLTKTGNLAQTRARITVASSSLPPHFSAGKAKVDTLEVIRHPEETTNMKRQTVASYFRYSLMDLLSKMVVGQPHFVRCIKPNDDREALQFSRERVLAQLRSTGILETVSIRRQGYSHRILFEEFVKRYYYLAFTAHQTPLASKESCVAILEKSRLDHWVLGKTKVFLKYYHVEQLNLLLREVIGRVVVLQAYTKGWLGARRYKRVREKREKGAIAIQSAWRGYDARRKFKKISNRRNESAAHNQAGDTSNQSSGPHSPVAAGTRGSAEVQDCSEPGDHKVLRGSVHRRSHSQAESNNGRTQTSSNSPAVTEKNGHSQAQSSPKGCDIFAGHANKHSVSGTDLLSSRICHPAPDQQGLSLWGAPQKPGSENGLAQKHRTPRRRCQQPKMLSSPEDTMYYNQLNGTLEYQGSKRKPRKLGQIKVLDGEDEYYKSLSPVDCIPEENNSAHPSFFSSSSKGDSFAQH

[4] = target: MAP kinase-interacting serine/threonine-protein kinase 1 (Homo sapiens) (UniProt Q9BUB5); assay: Selectivity interaction (KinomeScan (DiscoverX)) EUB0000666a MKNK1; details: at 10 µM
[5] = target: Mitogen-activated protein kinase 11 (Homo sapiens) (UniProt Q15759); assay: Selectivity interaction (KinomeScan (DiscoverX)) EUB0000695a MAPK11; details: at 100 nM
[6] = target: T3, Serine/threonine-protein kinase Sgk1 (Homo sapiens) (UniProt O00141); assay: Selectivity interaction (KinomeScan (DiscoverX)) EUB0000695a SGK1; details: at 100 nM
T3 sequence (whole entry): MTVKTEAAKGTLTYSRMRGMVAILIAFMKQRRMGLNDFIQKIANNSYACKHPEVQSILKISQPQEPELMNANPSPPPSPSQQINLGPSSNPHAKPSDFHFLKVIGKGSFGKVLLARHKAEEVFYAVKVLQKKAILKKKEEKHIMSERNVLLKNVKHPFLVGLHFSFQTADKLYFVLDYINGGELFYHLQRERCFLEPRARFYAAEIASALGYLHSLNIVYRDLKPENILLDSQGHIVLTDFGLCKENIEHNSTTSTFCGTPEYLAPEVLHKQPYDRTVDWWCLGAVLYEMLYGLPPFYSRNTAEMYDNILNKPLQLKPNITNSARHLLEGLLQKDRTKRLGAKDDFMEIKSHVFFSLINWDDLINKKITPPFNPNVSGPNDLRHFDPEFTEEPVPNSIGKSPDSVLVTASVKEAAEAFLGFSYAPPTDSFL

Aurora kinase B, sequence (Q96GD4 whole entry): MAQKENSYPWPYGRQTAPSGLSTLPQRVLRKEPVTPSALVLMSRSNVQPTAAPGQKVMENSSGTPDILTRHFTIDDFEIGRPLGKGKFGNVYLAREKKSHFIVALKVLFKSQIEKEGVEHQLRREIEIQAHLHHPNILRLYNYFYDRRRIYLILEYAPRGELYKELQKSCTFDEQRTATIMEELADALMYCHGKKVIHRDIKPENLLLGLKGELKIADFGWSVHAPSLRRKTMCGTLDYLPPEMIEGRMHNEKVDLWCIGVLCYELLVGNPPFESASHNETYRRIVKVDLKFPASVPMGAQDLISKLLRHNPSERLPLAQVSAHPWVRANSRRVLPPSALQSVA
Mitogen-activated protein kinase 11 (Homo sapiens), sequence (Q15759 whole entry): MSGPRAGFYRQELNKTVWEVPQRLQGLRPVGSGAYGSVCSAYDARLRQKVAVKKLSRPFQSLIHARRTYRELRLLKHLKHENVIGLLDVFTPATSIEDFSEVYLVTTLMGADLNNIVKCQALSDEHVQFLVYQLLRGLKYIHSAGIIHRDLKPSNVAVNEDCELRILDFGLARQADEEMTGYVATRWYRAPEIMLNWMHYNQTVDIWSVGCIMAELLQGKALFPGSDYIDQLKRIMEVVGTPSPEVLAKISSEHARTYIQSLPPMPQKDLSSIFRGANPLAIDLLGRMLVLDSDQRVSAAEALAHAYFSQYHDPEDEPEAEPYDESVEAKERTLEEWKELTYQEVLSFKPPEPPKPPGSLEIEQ
Interleukin-1 receptor-associated kinase 1 (Homo sapiens), sequence (P51617 whole entry, looked up): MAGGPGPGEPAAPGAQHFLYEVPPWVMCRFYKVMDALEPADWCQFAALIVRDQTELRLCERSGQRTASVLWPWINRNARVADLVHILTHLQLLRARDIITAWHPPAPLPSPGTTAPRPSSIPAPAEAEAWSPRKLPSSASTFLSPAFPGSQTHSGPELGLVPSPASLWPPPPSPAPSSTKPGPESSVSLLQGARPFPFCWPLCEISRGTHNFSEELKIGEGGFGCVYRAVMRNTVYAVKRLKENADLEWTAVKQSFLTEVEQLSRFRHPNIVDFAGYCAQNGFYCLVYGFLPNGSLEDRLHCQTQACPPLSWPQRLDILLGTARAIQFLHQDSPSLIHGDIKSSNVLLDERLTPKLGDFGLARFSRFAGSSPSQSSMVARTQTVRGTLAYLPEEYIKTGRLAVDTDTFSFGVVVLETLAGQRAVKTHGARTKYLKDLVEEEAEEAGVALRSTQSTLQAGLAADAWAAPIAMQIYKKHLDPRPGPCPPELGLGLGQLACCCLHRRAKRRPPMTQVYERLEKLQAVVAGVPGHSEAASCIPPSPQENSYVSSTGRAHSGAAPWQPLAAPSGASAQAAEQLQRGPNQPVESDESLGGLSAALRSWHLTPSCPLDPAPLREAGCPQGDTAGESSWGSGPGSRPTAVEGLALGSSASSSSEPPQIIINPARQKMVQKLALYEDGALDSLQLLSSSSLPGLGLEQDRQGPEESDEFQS
MAP kinase-interacting serine/threonine-protein kinase 1 (Homo sapiens), sequence (Q9BUB5 whole entry, looked up): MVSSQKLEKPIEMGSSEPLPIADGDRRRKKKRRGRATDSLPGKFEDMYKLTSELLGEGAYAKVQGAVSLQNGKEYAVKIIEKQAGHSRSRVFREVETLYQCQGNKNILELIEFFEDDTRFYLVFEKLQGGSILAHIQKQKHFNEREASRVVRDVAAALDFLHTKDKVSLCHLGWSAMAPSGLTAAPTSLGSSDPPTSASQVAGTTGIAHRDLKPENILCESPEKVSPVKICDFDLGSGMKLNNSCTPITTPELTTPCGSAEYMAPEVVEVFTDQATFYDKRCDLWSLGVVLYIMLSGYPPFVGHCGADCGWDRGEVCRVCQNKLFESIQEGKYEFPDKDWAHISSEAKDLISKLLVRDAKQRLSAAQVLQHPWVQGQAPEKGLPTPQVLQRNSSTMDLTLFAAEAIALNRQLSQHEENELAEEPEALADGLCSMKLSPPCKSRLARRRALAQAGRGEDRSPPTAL

Structure (SMILES): CNC(=O)Nc1ccc(-c2nc(N3CC4CCC(C3)O4)c3cnn(C4CCC5(CC4)OCCO5)c3n2)cc1
- % of inhibition (Aurora kinase B): 3%
- % of control [1]: 100%

Structure (SMILES): CC(C)(O)[C@H](F)CN1Cc2cc(NC(=O)c3cnn4cccnc34)c(N3CCOCC3)cc2C1=O
- dTM [2]: 0.8 K

Structure (SMILES): O=C(NOC[C@H](O)CO)c1ccc(F)c(F)c1Nc1ccc(I)cc1F
- % of control [3]: 99%
- % of control [4]: 100%

Structure (SMILES): Cc1cc(F)c(C(=O)Nc2cccc(-c3nncn3C(C)C)n2)cc1-n1cnc(C2CC2)c1
- % of control [5]: 100%
- % of control [6]: 90%
